# Assay results published in PubChem BioAssay AID200 (DTP/NCI, 2004).
# “And” between values parts separate entries of the source, which are not always exact repeats. Identical values can stand only once. Inconclusive results and toxic doses are left out. Where a SMILES comes first, the peptide text is derived from it. [ ]: non-standard residue; d: D form. The star is where a group is joined. Nle = CCCC[CH](N)C(=O)O; Cbz = O=C(OCc1ccccc1)*; Nva = CCC[CH](N)C(=O)O
# System: B6C3F1 mice, B16 melanoma ip, median survival T/C
# Assay: NCI In Vivo Anticancer Drug Screen. Data for tumor model B16 Melanoma (intraperitoneal) in B6C3F1 mice
# Details: endpoint: median survival time, schedule: Q01DX009 (ip), higher = longer survival
# Protocol: The antitumor activity of compounds was measured in mice bearing transplantable tumors. Survival or tumor size were measured and the results are expressed as the measurement made in the treated group (T) divided by the measurement made in the vehicle treated control group (C). The tumor model used in this assay is B16 Melanoma (intraperitoneal) in B6C3F1 mice
# [1] = dose: 6.25 mg/kg/injection, vehicle: saline with Tween-80
# [2] = dose: 12.5 mg/kg/injection, vehicle: saline with Tween-80
# [3] = dose: 100.0 mg/kg/injection, vehicle: Klucel (hydroxypropylcellulose) (HPC)
# [4] = dose: 200.0 mg/kg/injection, vehicle: Klucel (hydroxypropylcellulose) (HPC)
# [5] = dose: 3.12 mg/kg/injection, vehicle: saline with Tween-80
# [6] = dose: 6.25 mg/kg/injection, vehicle: Klucel (hydroxypropylcellulose) (HPC)
# [7] = dose: 12.5 mg/kg/injection, vehicle: Klucel (hydroxypropylcellulose) (HPC)
# [8] = dose: 25.0 mg/kg/injection, vehicle: Klucel (hydroxypropylcellulose) (HPC)
# [9] = dose: 25.0 mg/kg/injection, vehicle: saline with Tween-80
# [10] = dose: 50.0 mg/kg/injection, vehicle: Klucel (hydroxypropylcellulose) (HPC)
# [11] = dose: 50.0 mg/kg/injection, vehicle: saline with Tween-80
# [12] = dose: 100.0 mg/kg/injection, vehicle: saline with Tween-80
compound,measurement,setting,value
COc1cc2c(c(OC)c1O)-c1ccc(OC)c(=O)cc1[C@@H](NC(=O)C(F)(F)F)CC2,T/C,"dose: 0.62 mg/kg/injection, vehicle: Klucel (hydroxypropylcellulose) (HPC)",119 % of control
same,T/C,"dose: 0.63 mg/kg/injection, vehicle: Klucel (hydroxypropylcellulose) (HPC)",122 % of control
same,T/C,"dose: 1.25 mg/kg/injection, vehicle: Klucel (hydroxypropylcellulose) (HPC)",118 % of control
same,T/C,"dose: 2.5 mg/kg/injection, vehicle: Klucel (hydroxypropylcellulose) (HPC)",120 % of control
same,T/C,"dose: 4.17 mg/kg/injection, vehicle: Klucel (hydroxypropylcellulose) (HPC)",156 % of control
Cc1ccnc(NN=O)c1,T/C,"dose: 3.12 mg/kg/injection, vehicle: water",99 % of control
same,T/C,"dose: 6.25 mg/kg/injection, vehicle: water",100 % of control
Cc1cc(N=NC(N)=S)c2ccccc2c1O,T/C,"dose: 3.13 mg/kg/injection, vehicle: saline with Tween-80",94 % of control
same,T/C,[1],86 % of control
same,T/C,[2],87 % of control
CCCCC(NC(=O)C(CCC)NC(=O)OCc1ccccc1)C(=O)O (stereo not given) (Cbz-[Nva]-[Nle]-OH; configuration not given here),T/C,[3],104 % of control
same,T/C,[4],101 % of control
O=C(O)CSC(CC(=O)O)C(=O)O (stereo not given),T/C,"dose: 25.0 mg/kg/injection, vehicle: saline",94 % of control
same,T/C,"dose: 50.0 mg/kg/injection, vehicle: saline",89 % of control
same,T/C,"dose: 100.0 mg/kg/injection, vehicle: saline",94 % of control
Cc1nn(CCO)c(C)c1N=[N+]([O-])c1c(C)nn(CCO)c1C,T/C,"dose: 3.12 mg/kg/injection, vehicle: Klucel (hydroxypropylcellulose) (HPC)",107 % of control
same,T/C,[5],97 % of control
same,T/C,[6],109 % of control
same,T/C,[1],100 % of control
same,T/C,[7],111 % of control
same,T/C,[2],92 % of control
same,T/C,[8],95 % of control
same,T/C,[9],92 % of control
same,T/C,[10],91 % of control
same,T/C,[11],96 % of control
same,T/C,[3],91 % of control
O=C(CCBr)NCCNC(=O)CCBr,T/C,"dose: 43.7 mg/kg/injection, vehicle: saline with Tween-80",96 % of control
same,T/C,"dose: 87.5 mg/kg/injection, vehicle: saline with Tween-80",100 % of control
same,T/C,"dose: 175.0 mg/kg/injection, vehicle: saline with Tween-80",98 % of control
C/C=C1\C[C@@H]2C(OC)Nc3cc(O)c(OC)cc3C(=O)N2C1 (stereo not given in full),T/C,"dose: 0.03 mg/kg/injection, vehicle: suspension in saline",103 % of control
same,T/C,"dose: 0.06 mg/kg/injection, vehicle: suspension in saline",109 % of control
same,T/C,"dose: 0.12 mg/kg/injection, vehicle: suspension in saline",106 % of control
CCCCCCCCCCCCSC1=C(Cl)C(=O)C(OC)=C(OC)C1=O,T/C,[5],95 % of control and 102 % of control
same,T/C,[1],95 % of control and 103 % of control
same,T/C,[2],89 % of control and 94 % of control
same,T/C,[9],90 % of control and 100 % of control
same,T/C,[11],88 % of control and 101 % of control
same,T/C,[12],89 % of control
O=C(O)c1cc(Cc2ccc(O)c(C(=O)O)c2)ccc1O (tested in a mixture with another compound),T/C,[6],101 % of control
same,T/C,[7],105 % of control
same,T/C,[8],103 % of control
same,T/C,[10],94 % of control
same,T/C,[3],90 % of control
same,T/C,[4],93 % of control
CC12CCC3C(CCC4CC(OC(=O)Cc5ccc(N(CCCl)CCCl)cc5)CCC43C)C1CCC(=O)N2 (stereo not given),T/C,"dose: 1.5 mg/kg/injection, vehicle: saline with Tween-80",113 % of control
same,T/C,"dose: 3.0 mg/kg/injection, vehicle: saline with Tween-80",106 % of control
same,T/C,"dose: 12.0 mg/kg/injection, vehicle: saline with Tween-80",167 % of control
NC(=O)SCC(N)C(=O)O (stereo not given),T/C,[11],92 % of control
same,T/C,[12],87 % of control
same,T/C,"dose: 200.0 mg/kg/injection, vehicle: saline with Tween-80",96 % of control
